Laboratory results: patent publication US20250186405A1, “Compound For Use In Treating Narcolepsy” (Alkermes, Inc., priority 2023, published 2025)
Like-named read-outs stand apart in the source and are kept apart here.

Tests used:
[1] = Part 2 MAD: plasma pharmacokinetics, once daily for 10 days; type: in vivo, human; conditions: for Cmax / AUC(0-t) / concentration at 8 h / Tmax / half-life / Vd/F: oral; for AUC(0-t): read-out: AUC0-24, ss; for concentration at 8 h: read-out: C8 (concentration at 8-hour postdose); for Vd/F: read-out: Vz/F
Procedure: Part 2 of the study is a MAD evaluation in healthy subjects consisting of 4 cohorts: Cohorts 1-4 received powder-in-capsule or matching placebo. Dose levels were as follows:
Blood samples (up to 5 mL per sample) were collected for PK analysis of Compound A and its metabolite(s). The actual time of sample collection was recorded. The PK samples of the subjects randomized to placebo treatment were not analyzed. Any remaining plasma PK samples were used to explore the presence of any additional metabolites and/or biomarkers.
Plasma and urine concentrations of Compound A and its metabolite(s) were measured using a validated high-performance liquid chromatography with tandem mass spectrometry.
The plasma PK parameters of Compound A and its metabolite(s) were determined from the plasma concentration-time profiles for all evaluable subjects. Actual sampling times, rather than scheduled sampling times, were used in all computations involving sampling times. The below lower limit of quantitation concentrations were set to zero prior to PK parameter estimation.
The PK population was used for summaries of plasma and urine Compound A and its metabolite(s) concentrations and for analyses, summaries, and listing of PK parameters. Accumulation ratio (Day 10/Day 1) for Cmax and AUC0-24 was estimated with 90% CIs using a linear fixed effects model on log-transformed parameters. Dose effect was assessed using a linear fixed effects model on log-transformed t1/2. Dose proportionality was assessed using a power model on Cmax and AUC0-24 on Day 1 and Day 10 separately. Within-subject and total standard deviations for log-transformed Cmax and AUC0-24 were estimated within a linear mixed effects framework.

[2] = test system: subjects with narcolepsy type-2 (NT2); conditions: human, in vivo
Procedure: Part 5 consisted of a 4-way, 4-period crossover study design in approximately 8 subjects (2 subjects per sequence; minimum of 4 subjects with 1 subject per sequence). Subjects were randomized 1:1:1:1 to 1 of 4 sequences with 4 treatment periods (3 single doses of Compound A and 1 dose of matching placebo), with up to 48 hours of washout between treatments. Treatments were administered under fasted state.
Subjects were randomized to 1 of 4 sequences. […] In each period, subjects were administered a single dose of study drug (either Compound A or placebo) as per the randomization schedule with approximately 240 mL of noncarbonated water following overnight fasting. No food was given for at least 3 hours after dose administration (i.e., fast can be broken after the 3-hour PK time point is collected). Water was allowed ad libitum except for 1 hour before and 1 hour after study drug administration. Safety assessments including AEs, safety ECGs, vital signs, and clinical laboratory tests were conducted, and plasma PK samples were collected. Furthermore, BP and HR were monitored once every hour for 12 hours on the dosing days.
Adverse events (AEs) and serious adverse events (SAEs) were monitored continuously until the completion of the study.
Nine subjects with NT2 were dosed in Part 5 (POC in NT2) in a randomized 4-sequence 4-period cross-over design. Each dose of Compound A or matching placebo was separated by 2 days. A 14-day washout period preceded the treatment period and included discontinuation of narcolepsy medications. All 9 subjects underwent the washout period and received at least one dose of Compound A. All subjects completed all 4-way randomized crossover periods.

[3] = human, plasma, 3 mg, Day 1, geometric mean
[4] = human, plasma, 3 mg, Day 10, geometric mean
[5] = human, plasma, 8 mg, Day 1, geometric mean
[6] = human, plasma, 8 mg, Day 10, geometric mean
[7] = human, plasma, 15 mg, Day 1, geometric mean
[8] = human, plasma, 15 mg, Day 10, geometric mean
[9] = human, plasma, 25 mg, Day 1, geometric mean
[10] = human, plasma, 25 mg, Day 10, geometric mean

## CS(=O)(=O)N[C@H]1CCCN2C(=O)COc3ccccc3C3CCC(CC3)OCC12 (stereo partly drawn) [Compound A, N-[(4S,4aR,7α,10α)-1,2,3,4,4a,5,7,8,9,10,16,17-dodecahydro-17-oxo-7,10-ethanopyrido[1,2-d][1,7,4]benzodioxaazacyclotridecin-4-yl]methanesulfonamide]
[1]; 3 mg
  Accumulation ratio (Day 10/Day 1) AUC0-24: 1.36
  Accumulation ratio (Day 10/Day 1) Cmax: 1.68
[1]; 3 mg, Day 10, geometric mean
  CL/F: 62.0 L/h
  Ctrough: 0.495 ng/mL
[1]; 8 mg
  Accumulation ratio (Day 10/Day 1) AUC0-24: 1.36
  Accumulation ratio (Day 10/Day 1) Cmax: 1.38
[1]; 8 mg, Day 10, geometric mean
  CL/F: 55.7 L/h
  Ctrough: 2.07 ng/mL
[1]; 15 mg
  Accumulation ratio (Day 10/Day 1) AUC0-24: 1.23
  Accumulation ratio (Day 10/Day 1) Cmax: 1.15
[1]; 15 mg, Day 10, geometric mean
  CL/F: 84.4 L/h
  Ctrough: 2.06 ng/mL
[1]; 25 mg
  Accumulation ratio (Day 10/Day 1) AUC0-24: 1.02
  Accumulation ratio (Day 10/Day 1) Cmax: 1.32
[1]; 25 mg, Day 10, geometric mean
  CL/F: 108 L/h
  Ctrough: 4.51 ng/mL
[1]; [3]
  Cmax: 5.6 ng/mL
  AUC(0-t): 0.0355 µg·h/mL
  concentration at 8 h: 1.21 ng/mL
[1]; human, plasma, 3 mg, Day 1, median, read-out: Tmax
  Tmax: 1.75 h
[1]; [4]
  Cmax: 9.38 ng/mL
  half-life: 9.63 h
  AUC(0-t): 0.0484 µg·h/mL
  concentration at 8 h: 1.39 ng/mL
  Vd/F: 862 L
[1]; human, plasma, 3 mg, Day 10, median, read-out: Tmax
  Tmax: 1.5 h
[1]; [5]
  Cmax: 16 ng/mL
  AUC(0-t): 0.104 µg·h/mL
  concentration at 8 h: 3.89 ng/mL
[1]; human, plasma, 8 mg, Day 1, median, read-out: Tmax
  Tmax: 1.75 h
[1]; [6]
  Cmax: 22.1 ng/mL
  half-life: 7.66 h
  AUC(0-t): 0.141 µg·h/mL
  concentration at 8 h: 4.6 ng/mL
  Vd/F: 616 L
[1]; human, plasma, 8 mg, Day 10, median, read-out: Tmax
  Tmax: 1.75 h
[1]; [7]
  Cmax: 25.2 ng/mL
  concentration at 8 h: 3.41 ng/mL
[1]; human, plasma, 15 mg, Day 1, median, read-out: Tmax
  Tmax: 1.5 h
[1]; [8]
  Cmax: 28.9 ng/mL
  half-life: 14 h
  concentration at 8 h: 4.62 ng/mL
  Vd/F: 1700 L
[1]; human, plasma, 15 mg, Day 10, median, read-out: Tmax
  Tmax: 1.75 h
[1]; human, plasma, 25 mg, 3, 8, 15 and 25 mg, both Day 1 and Day 10 (range 1.0 to 6.0), read-out: median Tmax
  Tmax: 1.75 h
[1]; [9]
  Cmax: 28 ng/mL
  concentration at 8 h: 7.35 ng/mL
[1]; human, plasma, 25 mg, Day 1, median, read-out: Tmax
  Tmax: 1.25 h
[1]; [10]
  Cmax: 36.9 ng/mL
  half-life: 15.9 h
  concentration at 8 h: 7.39 ng/mL
  Vd/F: 2480 L
[1]; human, plasma, 25 mg, Day 10, median, read-out: Tmax
  Tmax: 1.5 h
[1]; human, plasma, po, Day 10, 3 to 25 mg, read-out: terminal half-life following multiple oral dosing, range
  half-life at 10 days: 8 to 16 h
[1]; once daily dosing, from half-life
  steady state expected to be achieved by: ≤ 4 days
[2]
  TEAE by Preferred Term: Influenza: 1 (11.1) n (%)
